Experimental data: patent US7592188B2, “Live cell biosensors” (The Scripps Research Institute, priority 2004, dated 2009)
Entries after “also recorded” stand apart in the source; their conditions may differ.

Legend:
Rho kinase = experiment: Extension and retraction of protrusions with Rho kinase inhibitor; format: cell-based
Description: These possibilities were distinguished by blocking retraction using an inhibitor of Rho kinase (Y27632).

[1] = Photophysical properties of dyes in various solvents (absorbance, emission, quantum yield); format: physicochemical; set-up: ε × F / ε × Φ: unit not given here
Method: Analytical grade reagents were purchased from major suppliers. […] Emission and excitation spectra were obtained using a Spex Fluorolog 2 spectrofluorometer at 23° C. […] Demas et al., J. Phys. […] All operations with dyes were performed under dim light. Flasks containing dyes were wrapped with aluminum foil.

[2] = Dye photo-bleaching under tungsten lamp irradiation; format: physicochemical
Method: Photo-bleaching. All samples contained 1 mM dye in a final volume of 10 mL. For nitrogen and oxygen saturation the samples were bubbled with solvent-saturated gas for 30 min. A 90 W halogen tungsten lamp was employed for irradiation, with a fan used for cooling. The temperature of samples was 25±1° C. during reactions. The absorption spectrum of each sample was measured before irradiation and after every 10 h period. For the trapping experiment thioanisole (1.0 M) was added to oxygen-saturated butanol solution of dye 1b. After 60 h of irradiation the reaction mixture was analyzed by GC-MS for products formed. The products, methylphenylsulfoxide and methylphenyl sulfone, were identified by comparison with authentic samples.
Dyes used in living cells must be photostable to provide many sequential images and to obtain sufficient light from minimal amounts of exogenous labeled material. The photostability of the new dyes was characterized by exposing them to constant illumination from a tungsten lamp filtered through glass, a broad spectrum light source that provided essentially equal intensity throughout the spectral range where the dyes would be irradiated in vivo. A fan was used to prevent heating, and dye solutions were adjusted for equal maximal absorbance, kept below 1 μM to minimize the inner filter effect. […] Photo-bleaching followed first-order kinetics in all cases.

[3] = Quantum yield of triplet state formation; format: physicochemical; conditions: in ethanol
Cdc42 = experiment: MeroCBD biosensor imaging of Cdc42 activation in living cells; format: cell-based; conditions: in words
Description: The I—SO labeled WASP fragment provided a straightforward means to assay Cdc42 activation in cell lysates. By simply adding the biosensor to the lysate, the fluorescence readout of Cdc42 activation. This method was used to determine the kinetics of Cdc42 activation in neutrophils after stimulation with chemoattractant fMetLeuPhe (FMLP) peptide. Results obtained paralleled those previously reported using well-established methods (Benard et al., J. Biol. Chem. 275: 36457 (2000). Fluorescence of the biosensor was also used to monitor the real-time kinetics of Cdc42 GDP/GTP exchange in vitro. Because the labeled WASP fragment responded to activated Cdc42 through fluorescence intensity modulation, a ratiometric imaging approach was used to correct for effects of varying cell thickness, uneven illumination, and other factors that could affect imaging of dye intensity (Bright et al., Methods Cell Biol. 14: 157 (1989). The biosensor was fused to enhanced green fluorescent protein (EGFP) to provide a fluorescence signal insensitive to Cdc42 binding, but with the same subcellular distribution as the sensitive dye. The dye image could be divided by the EGFP image to normalize changes in dye intensity not originating from Cdc42 binding. […] Fluorescence response and Cdc42 binding of the biosensor remained intact after these modifications. […]

Rac = target: T1, Rac (Homo sapiens, UniProt P63000); experiment: Specificity of I-SO WASP biosensor for activated GTPases; format: binding; conditions: concentrations well above physiological levels
T1 construct: 6His; made in house; host or cells: E. coli BL21DE3, only by the words 'analogous procedures'
Method: (§1) Further studies were conducted using the I—SO dye 4b attached at position F271 C of the WASP fragment. This biosensor had properties similar to the S—SO biosensor described above. […] To determine the specificity of the biosensor, interactions with different activated GTPases were examined. The biosensor distinguished proteins closely related to Cdc42 from other members of the Rho family.

RhoA = target: T2, RhoA (Homo sapiens, UniProt P61586); experiment: as above; format: binding; conditions: concentrations well above physiological levels
T2 construct: 6His; made in house; host or cells: E. coli BL21DE3, only by the words 'analogous procedures'
Method: as §1

TC10 = TC10 (Homo sapiens, UniProt P17081); experiment: as above; format: binding
Method: as §1

T2 sequence (P61586 whole entry, species assumed): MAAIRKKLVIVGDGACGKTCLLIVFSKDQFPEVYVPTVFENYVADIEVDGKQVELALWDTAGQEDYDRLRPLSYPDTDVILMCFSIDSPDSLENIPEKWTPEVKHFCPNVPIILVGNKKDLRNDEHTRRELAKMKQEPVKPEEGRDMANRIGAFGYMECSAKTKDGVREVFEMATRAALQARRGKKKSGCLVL
Sequence of TC10 (P17081 whole entry, species assumed): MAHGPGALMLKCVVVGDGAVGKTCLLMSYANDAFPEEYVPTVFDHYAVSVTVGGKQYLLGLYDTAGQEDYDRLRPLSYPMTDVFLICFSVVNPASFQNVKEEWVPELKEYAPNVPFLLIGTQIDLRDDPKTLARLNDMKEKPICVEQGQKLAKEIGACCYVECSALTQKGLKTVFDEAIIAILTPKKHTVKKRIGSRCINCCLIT

C[C@@H](N)[C@H]1CC[C@H](C(=O)Nc2ccncc2)CC1 [Y27632]
effect on protrusions (Rho kinase): caused protrusions to continue expanding even after Cdc42 activity decreased

CN1C(=O)C(=C/C=C/C=C2\N(C)c3ccccc3C2(C)C)C(=O)N(C)C1=S [dye 3a, 1,3-Dimethyl-2-thioxo-5-[(2E,4Z)-4-(1,3,3-trimethyl-1,3-dihydro-2H-indol-2-ylidene)but-2-enylidene]dihydropyrimidine-4,6(1H,5,H)-dione]
Abs. λmax ([1]; solvent BuOH): 589 nm | Emission λmax ([1]; solvent BuOH): 609 nm | Φ (quantum yield of fluorescence) ([1]; solvent BuOH): 0.61 | ε (molar extinction coefficient) ([1]; solvent BuOH): (190000) | ε × F ([1]; solvent BuOH): 116000 | Abs. λmax ([1]; solvent C6H6): 584 nm | Emission λmax ([1]; solvent C6H6): 605 nm | Φ (quantum yield of fluorescence) ([1]; solvent C6H6): 0.20 | ε (molar extinction coefficient) ([1]; solvent C6H6): (127000) | ε × F ([1]; solvent C6H6): 26000 | Abs. λmax ([1]; solvent DMF): 589 nm | Emission λmax ([1]; solvent DMF): 611 nm | Φ (quantum yield of fluorescence) ([1]; solvent DMF): 0.94 | ε (molar extinction coefficient) ([1]; solvent DMF): (183000) | ε × F ([1]; solvent DMF): 172000 | Abs. λmax ([1]; solvent MeOH): 583 nm | Emission λmax ([1]; solvent MeOH): 603 nm | Φ (quantum yield of fluorescence) ([1]; solvent MeOH): 0.26 | ε (molar extinction coefficient) ([1]; solvent MeOH): (173000) | ε × F ([1]; solvent MeOH): 45000 | Abs. λmax ([1]; solvent OcOH): 590 nm | Emission λmax ([1]; solvent OcOH): 609 nm | Φ (quantum yield of fluorescence) ([1]; solvent OcOH): 0.99 | ε (molar extinction coefficient) ([1]; solvent OcOH): (180000) | ε × F ([1]; solvent OcOH): 178000 | Absolute rate constant of dye photo-bleaching, kph × 10^6 ([2]; BuOH): 0.78 s^−1 | Absolute rate constant of dye photo-bleaching, kph × 10^6 ([2]; MeOH): 0.18 s^−1 | ΦT, quantum yield of triplet state formation [3]: 0.003

B1: MeroCBD (conjugate)
chain: DIQNPDITSSRYRGLPAPGPSPADKKRSGKKKISKADIGAPSGFKHVSHVGWDPQNGFDVNNLDPDLRSLCSRAGISEAQLTDAETSKLIYDFIEDQGGLEAVRQEMRRQEPLP
modifications: left off: large carriers
Cdc42 activation reported by biosensor in living cells (Cdc42): showed localized Cdc42 activation even in unstimulated cells; also recorded: consistently showed activation in the trans-Golgi apparatus of endothelial cells

B2: I—SO-WASP biosensor: I—SO dye attached at position F271C of the WASP fragment (conjugate)
chain: DIQNPDITSSRYRGLPAPGPSPADKKRSGKKKISKADIGAPSGFKHVSHVGWDPQNGFDVNNLDPDLRSLCSRAGISEAQLTDAETSKLIYDFIEDQGGLEAVRQEMRRQEPLPPPPPPS
modifications: left off: small tags and cut ends
notes: I—SO dye attached at position F271C of the WASP fragment
interaction with Rac (Rac): did not interact | interaction with RhoA (RhoA): did not interact | response to TC10 (TC10): responded
